Measurements taken from publication PMC12668310, “High‐Throughput Synthesis and Screening of a Cyanimide Library Identifies Selective Inhibitors of ISG15‐Specific Protease mUSP18” (Angewandte Chemie (International Ed. in English), 2025).
Where “and” joins values, the source holds several entries; their conditions need not be identical. Equal values may be shown once.

What was measured:
USP30 = molecular target: T1, USP30 (Homo sapiens, UniProt Q70CQ3); assay: High-throughput screening, Ub-RhoMP, single dose 1.25 µM; assay type: biochemical; set-up: USP30 CD (57-517); purchased Ubiquigent 64-0057-050; conditions: for BB %inhibition USP30: individual amine building block (plate NCN-5); for %inhibition USP30: crude in-plate synthesized compound, 1.25 µM assuming full conversion
T1 sequence (Q70CQ3 57-517): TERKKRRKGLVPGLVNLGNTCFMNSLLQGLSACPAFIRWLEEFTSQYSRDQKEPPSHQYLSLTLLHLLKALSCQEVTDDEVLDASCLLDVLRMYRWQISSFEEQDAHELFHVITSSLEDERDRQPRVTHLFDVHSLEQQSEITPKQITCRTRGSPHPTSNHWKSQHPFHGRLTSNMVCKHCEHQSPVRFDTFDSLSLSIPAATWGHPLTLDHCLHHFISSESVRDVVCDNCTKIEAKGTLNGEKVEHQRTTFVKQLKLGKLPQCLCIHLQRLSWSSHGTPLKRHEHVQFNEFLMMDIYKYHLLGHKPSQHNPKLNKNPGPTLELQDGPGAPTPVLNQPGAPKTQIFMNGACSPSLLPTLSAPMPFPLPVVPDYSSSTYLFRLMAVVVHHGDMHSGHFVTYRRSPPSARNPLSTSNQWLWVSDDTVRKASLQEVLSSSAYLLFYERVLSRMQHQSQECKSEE
Experimental: (§1) Since the in‐plate synthesis was conducted in 1536‐well Echo plates, the compounds could readily be transferred from these plates into 1536‐well assay plates using acoustic liquid dispensing (Figure 2a) and subjected to HTS. We screened the whole 7536 compound library against a panel of twelve enzymes, including three DUBs from the UCH family, two DUBs from the OTU family, five DUBs from the USP family, plus ISG15 protease USP18, and SUMO protease SENP1. Each compound was tested at a single dose of 1.25 µM, assuming full conversion (10 mM in DMSO of the formed products) during the in‐plate synthesis, using the fluorogenic assay described above. […] The compounds are sorted by the amine building blocks (BB1‐16), and within each BB, sorted by carboxylic acid (CA1‐471), thereby providing a comprehensive and systematic overview of the overall inhibition by each BB and CA combination. Some interesting patterns can be obtained from this map. […] Indeed, BB10 is the privileged scaffold for UCHL1 as it originates from UCHL1 inhibitor 5 (Figure 1). […] On the other hand, OTUD1 and USP32 show a much higher hit rate, and this is even more pronounced for USP30 and ISG15 protease mUSP18, each showing many active compounds distributed over several BB's.
(§2) Purified recombinant enzymes used in this study
(§3) High-throughput screening
(§4) The screens were performed at room temperature in “flat bottom, non-treated, black […]
(§5) µM. The compounds (10 nL each) were transferred from the 1 mM daughter plates to the […]
(§6) Four wells containing DMSO
(§7) (10 nL) and four wells containing NEM (10 mM final concentration) were used in each plate […]
(§8) solution (1.33x final concentration) was added to each well, followed by incubation for 30 min.
(§9) Next, 2 µL of a substrate solution (4x final concentration) was added to each well (Ub-RhoMP[2]
(§10) After 1h or 2h incubation the
(§11) The percentage inhibition was calculated for each well using the […]
(§12) Where FIx is the fluorescence intensity of each well, FIpos is the average fluorescence intensity of the positive (NEM) control wells, and FIneg is the average fluorescence intensity of the negative (DMSO) control wells.

OTUD1 = molecular target: T2, OTUD1 (Homo sapiens, UniProt Q5VV17); assay: as above; assay type: biochemical; conditions: crude in-plate synthesized compound, 1.25 µM assuming full conversion
T2 sequence (Q5VV17 287-481): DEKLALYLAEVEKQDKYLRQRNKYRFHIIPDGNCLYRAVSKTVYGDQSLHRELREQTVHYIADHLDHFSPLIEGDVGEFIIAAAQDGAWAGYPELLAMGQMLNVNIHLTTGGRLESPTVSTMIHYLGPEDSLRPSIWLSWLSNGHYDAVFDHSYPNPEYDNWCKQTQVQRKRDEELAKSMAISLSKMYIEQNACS
Experimental: as §1, §2, §3, §4, §5, §6, §7, §8, §9, §10, §11, §12

Structure (SMILES): N#CN1CC[C@H](C(=O)Nc2nc3c(s2)CNCC3)C1 [BB10]
- BB %inhibition USP30 (USP30): -2.0%

Structure (SMILES): N#CN1C[C@H]2C[C@H](N)C[C@H]2C1 [BB7]
- BB %inhibition USP30 (USP30): -2.3%

Structure (SMILES): N#CN1CCC2(CCNC2)C1 (centres unmarked) [BB14]
- BB %inhibition USP30 (USP30): 3.9%

Structure (SMILES): N#CN1CC[C@@H](NC(=O)CCN(Cc2ccccc2)S(=O)(=O)c2c(Cl)cccc2Cl)C1 [BB01CA93]
- %inhibition OTUD1 (OTUD1): 1.5%
- %inhibition USP30 (USP30): 101.1%

Structure (SMILES): N#CN1CCC(N)CC1 [BB2]
- BB %inhibition USP30 (USP30): 4.8%

Structure (SMILES): N#CN1CCC(n2cc(N)cn2)CC1 [BB16]
- BB %inhibition USP30 (USP30): 0.9%

Structure (SMILES): N#CN1CC[C@@H](N)C1 [BB1]
- BB %inhibition USP30 (USP30): 5.9%

Structure (SMILES): N#CN1CC[C@@H](NC(=O)c2ncoc2-c2cccs2)C1 [BB01CA94]
- %inhibition OTUD1 (OTUD1): -11.1%
- %inhibition USP30 (USP30): 73.0%

Structure (SMILES): N#CN1CCC[C@@H](N)C1 [BB4]
- BB %inhibition USP30 (USP30): 5.1%

Structure (SMILES): N#CN1CC[C@@H](NC(=O)c2ccc(CN)cc2)C1 [BB9]
- BB %inhibition USP30 (USP30): ~35% and 31.5%

Structure (SMILES): N#CN1CC[C@@H](NC(=O)c2nc(N3CCCC3)ncc2Cl)C1 [BB01CA90]
- %inhibition OTUD1 (OTUD1): 7.7%
- %inhibition USP30 (USP30): 54.5%

Structure (SMILES): N#CN1C[C@@H]2C[C@H]1CN2 [BB12]
- BB %inhibition USP30 (USP30): -3.6%

Structure (SMILES): N#CN1CC[C@@H](NC(=O)Cc2csc(-c3cnccn3)n2)C1 [BB01CA92]
- %inhibition OTUD1 (OTUD1): -13.5%
- %inhibition USP30 (USP30): 65.3%

Structure (SMILES): N#CN1CCC[C@H](N)C1 [BB8]
- BB %inhibition USP30 (USP30): -2.4%

Structure (SMILES): N#CN1C[C@H](N)[C@@H](O)C1 [BB13]
- BB %inhibition USP30 (USP30): 7.5%

Structure (SMILES): N#CN1CC[C@@H](NC(=O)C(Cc2c[nH]cn2)NS(=O)(=O)c2ccc(Cl)cc2)C1 (some centres unmarked) [BB01CA91]
- %inhibition OTUD1 (OTUD1): -3.9%
- %inhibition USP30 (USP30): 36.0%

Structure (SMILES): N#CN1CC[C@H](CN)C1 [BB11]
- BB %inhibition USP30 (USP30): -5.7%

Structure (SMILES): N#CN1CC[C@H](N)C1 [BB3]
- BB %inhibition USP30 (USP30): 3.7%

Structure (SMILES): N#CN1CC(N)C1 [BB5]
- BB %inhibition USP30 (USP30): -0.656%

Structure (SMILES): N#CN1C[C@H]2C[C@@H](N)C[C@H]2C1 [BB6]
- BB %inhibition USP30 (USP30): -0.126%

Structure (SMILES): N#CN1C[C@@H](F)[C@@H](N)C1 [BB15]
- BB %inhibition USP30 (USP30): -2.2%
